The values that follow are results of earlier work, collected in PubChem BioAssay AID1259409 (Chemical Carcinogenesis Research Information System (CCRIS), 2018).

The data set deals with rodent chemically induced tumor inhibition, incidence and multiplicity. Briefly: CCRIS tumor inhibitor studies. The note with it: Carcinogen: N-BUTYL-N-(4-HYDROXYBUTYL)NITROSAMINE, 3817-11-6, Dose [Inhibitor]: 0, Route [Inhibitor]: INTRAVESICULAR, Species: MOUSE, Strain/Sex: C57BL6/FEMALE, Dose [Carcinogen]: 0.05% IN DRINKING WATER FOR 8 WK; for outcome: Target Tissue: Type of Lesion: URINARY BLADDER: SQUAMOUS CELL CARCINOMA

Consider `CCCCCCCCCCCCCCCCCCCCCCCCCC(=O)N[C@@H](CO[C@H]1O[C@H](CO)[C@H](O)[C@H](O)[C@H]1O)[C@H](O)[C@H](O)CCCCCCCCCCCCCC`, for which the outcome is on record as 0/13 (0%), 0/13 (0%), not significant (0.1 UG/KG ONCE/WK FOR 17 WK BY INTRAVESICULAR INSTILLATION UNDER ANESTHESIA, BEGINNING 1 WK AFTER INITIATION PERIOD () and 0/13 (0%), 2/11 (18.2%), not significant (10 UG/KG ONCE/WK FOR 17 WK BY INTRAVESICULAR INSTILLATION UNDER ANESTHESIA, BEGINNING 1 WK AFTER INITIATION PERIOD (S). Moreover, the “tumour outcome (control, treated, inhibition, significance)” value (10 UG/KG ONCE/WK FOR 17 WK BY INTRAVESICULAR INSTILLATION UNDER ANESTHESIA, BEGINNING 1 WK AFTER INITIATION PERIOD (S, Target Tissue: Type of Lesion: URINARY BLADDER: TRANSITIONAL CELL CARCINOMA) is 1/13 (7.7%), 3/11 (27.3%), -254%, not significant.
